# Values joined by “and” are separate entries in the source; they are usually repeats but may differ in a detail not shown here. Equal values may be shown once.
# Assay: Example 3 solution stability of fully diluted ready-to-use iloprost in IV bags (HPLC)
# Format: physicochemical
# Method: Iloprost 100 μg/mL injection product is administered to patients by IV bag infusion over a period of six hours. The fully diluted ready to use iloprost is prepared in pharmacy cleanroom using sterile preparation standards (USP Chapter <797>) by pharmacy trained and licensed staff. The fully diluted ready to use drug product may be prepared several hours ahead of treatment with storage at ambient conditions or several days ahead of treatment with storage at refrigerated (2-8° C.) conditions. The IV bags are prepared using empty sterile IV bags which are filled with 99 mL of 0.9% NaCl and 1.0 mL of iloprost 100 µg/mL injection product. The bags are then manually mixed gently to provide a uniform solution. […] IV Bag Sample Preparation: Two 50 mL syringes with 18-gauge needles were assembled. 1.0 mL syringe with 18-gauge needle was assembled. Using a 50 mL syringe, 50 mL of 0.9% NaCl was transferred into an empty IV bag (sterile, ICU Medical) using the injection port. Using a second 50 mL syringe, 49 mL of 0.9% NaCl was transferred into the same IV bag using the injection port resulting in 99 mL of solution. Using the 1 ml syringe, 1.0 mL of iloprost 100 μg/mL injection product was transferred into the IV bag using the injection port. The needle was removed and the port was securely closed. The IV bag was gently inverted several times to mix. During inversion, it was occasionally paused to squeeze the injection port area to ensure liquid rinsed into area several times. Sampling Procedure: For sampling, a 3 mL syringe was assembled with an 18-gauge needle. Using a 3 ml syringe, 2 mL of IV bag solution was withdrew through the injection port and 1 mL was transferred to a HPLC vial for neat injection and the other 1 ml was transferred to a back-up HPLC vial. HPLC vials were stored at refrigerated conditions 2-8° C. Sample Storage and Sampling: For each testing conditions (i-iv discussed above), 12 IV bag samples were prepared (6 IV bags for condition ia)-see below for sampling time). For condition i), all 12 IV bags were then placed into 25° C./60% RH stability chamber ensuring each bag is resting on its largest surface area side. After the first time point, the IV bags were removed from the chamber and each IV bag was mixed by inversion several times. Sampling from each IV bag was taken for HPLC analysis. After sampling, the IV bags were placed back into 25° C./60% RH stability chamber ensuring each bag is resting on its largest surface area side, until next sampling time. At each sampling time, the IV bags were removed from the chamber and each IV bag was mixed by inversion several times before samples were removed. For conditions ii) and iii), all 12 IV bags for each testing condition was placed into a 2-8° C. stability chamber ensuring each bag is resting on its largest surface area side. After 5 days have passed for condition ii) or after 8 days have passed for condition iii), the IV bags were removed from the chamber and allowed to equilibrate to room temperature. Each IV bag was mixed by inversion several times. Sampling from each IV bag was taken for HPLC analysis. Then the IV bags were placed in the 25° C./60% RH stability chamber and sampled at certain time points as discussed herein. […]
# [1] = Table 8A, IV bag 25° C./60% RH, 2 h
# [2] = Table 8A, IV bag 25° C./60% RH, 4 h
# [3] = Table 8A, IV bag 25° C./60% RH, 6 h
# [4] = Table 8A, IV bag 25° C./60% RH, 8 h
# [5] = Table 8A, IV bag 25° C./60% RH, 24 h
# [6] = Table 8B, Batch 1, 25° C./60% RH, 8 hr
# [7] = Table 8B, Batch 1, 25° C./60% RH, 12 hr
# [8] = Table 8B, Batch 1, 25° C./60% RH, 48 hr
# [9] = Table 8B, Batch 1, 25° C./60% RH, 96 hr
# [10] = Table 8C, Batch 2, 25° C./60% RH, 8 hr
# [11] = Table 8C, Batch 2, 25° C./60% RH, 12 hr
# [12] = Table 8C, Batch 2, 25° C./60% RH, 48 hr
# [13] = Table 8C, Batch 2, 25° C./60% RH, 96 hr
# [14] = Table 8D, Batch 1, 5° C. for 5 days
# [15] = Table 8D, Batch 1, 5° C. for 5 days, 25° C./60% RH for 8 hr
# [16] = Table 8D, Batch 1, 5° C. for 5 days, 25° C./60% RH for 12 hr
# [17] = Table 8E, Batch 2, 5° C. for 5 days
# [18] = Table 8E, Batch 2, 5° C. for 5 days, 25° C./60% RH for 8 hr
# [19] = Table 8E, Batch 2, 5° C. for 5 days, 25° C./60% for 12 hr
smiles,measurement,setting,value
"CC#CCC(C)[C@H](O)/C=C/[C@@H]1[C@H]2C/C(=C/CCCC(=O)O)C[C@H]2C[C@H]1O (stereo partly drawn) [Iloprost, (5E)-5-[(3aS,4R,5R,6aS)-5-hydroxy-4-[(E,3S)-3-hydroxy-4-methyloct-1-en-6-ynyl]-3,3a,4,5,6,6a-hexahydro-1H-pentalen-2-ylidene]pentanoic acid]",% Initial,[1],100.8% and 99.4% and 100.2% and 99.7% and 100.5% and 100.4%
same,Iloprost (%),[1],95.0% and 94.2% and 94.8% and 94.7% and 95.3%
same,% Initial,[2],101.0% and 99.5% and 99.6% and 100.3% and 101.3% and 101.9%
same,Iloprost (%),[2],95.2% and 94.3% and 94.7% and 95.5% and 96.7%
same,% Initial,[3],101.6% and 100.2% and 100.5% and 99.3% and 101.7% and 100.6%
same,Iloprost (%),[3],95.7% and 95.0% and 95.1% and 93.7% and 95.9% and 95.4%
same,% Initial,[4],100.0% and 101.9% and 101.1% and 99.9%
same,Iloprost (%),[4],94.3% and 94.8% and 94.6% and 96.2% and 95.3%
same,% Initial,[5],102.2% and 101.4% and 102.0% and 100.1% and 98.9% and 100.5%
same,Iloprost (%),[5],97.0% and 95.5% and 96.7% and 94.7% and 93.4% and 94.8%
same,Iloprost (%),"Table 8A, IV bag, 1.0 mL 100 μg/mL product + 99 mL 0.9% NaCl, Initial, Samples 1-6",94.2% and 94.8% and 94.6% and 94.4% and 94.3% and 94.9%
same,% Initial,[6],100% and 104% and 101% and 103%
same,Iloprost,[6],973.6 ng/mL and 1010 ng/mL and 979.5 ng/mL and 1003 ng/mL and 977.2 ng/mL and 1007 ng/mL
same,% Initial,[7],103% and 104% and 105% and 99%
same,Iloprost,[7],1004 ng/mL and 1009 ng/mL and 978.2 ng/mL and 1042 ng/mL and 975.1 ng/mL and 1005 ng/mL
same,% Initial,[8],103% and 101% and 100%
same,Iloprost,[8],1004 ng/mL and 995.2 ng/mL and 968 ng/mL and 1001 ng/mL and 984.6 ng/mL and 977.3 ng/mL
same,% Initial,[9],104% and 105% and 103% and 102% and 101% and 100%
same,Iloprost,[9],1013 ng/mL and 1017 ng/mL and 970.9 ng/mL and 1014 ng/mL and 994.1 ng/mL and 971.5 ng/mL
same,Iloprost,"Table 8B, Batch 1, IV bag, Initial (T = 0), Preparations 1-6",975.8 ng/mL and 977.5 ng/mL and 968.7 ng/mL and 942.8 ng/mL and 994.1 ng/mL and 981.9 ng/mL
same,% Initial,[10],102% and 101% and 100% and 96%
same,Iloprost,[10],995.8 ng/mL and 1002 ng/mL and 994.6 ng/mL and 1004 ng/mL and 998.8 ng/mL and 983.3 ng/mL
same,% Initial,[11],101% and 99% and 100% and 98%
same,Iloprost,[11],993.3 ng/mL and 984.1 ng/mL (2×) and 989.6 ng/mL and 994.8 ng/mL and 1005 ng/mL
same,% Initial,[12],101% and 99% and 104% and 100%
same,Iloprost,[12],993.7 ng/mL and 984.2 ng/mL and 994.4 ng/mL and 1032 ng/mL and 1005 ng/mL and 1015 ng/mL
same,% Initial,[13],102% and 99% and 101% and 100%
same,Iloprost,[13],1002 ng/mL and 979.5 ng/mL and 989 ng/mL and 1005 ng/mL and 996.3 ng/mL and 1027 ng/mL
same,Iloprost,"Table 8C, Batch 2, IV bag, Initial (T = 0), Preparations 1-6",1021 ng/mL and 980.9 ng/mL and 990.7 ng/mL and 980.7 ng/mL and 994.4 ng/mL and 1001 ng/mL
same,% Initial,[14],104% and 98% and 101% and 100% and 99%
same,Iloprost,[14],1050 ng/mL and 931.9 ng/mL and 1024 ng/mL (2×) and 1020 ng/mL and 1001 ng/mL
same,% Initial,[15],99% and 100% and 98% and 102% and 101%
same,Iloprost,[15],1002 ng/mL and 957.3 ng/mL and 993.8 ng/mL and 1040 ng/mL and 1025 ng/mL and 1011 ng/mL
same,% Initial,[16],97% and 99% and 100% and 101%
same,Iloprost,[16],976.5 ng/mL and 943.2 ng/mL and 1015 ng/mL and 1031 ng/mL and 1010 ng/mL and 982.7 ng/mL
same,Iloprost,"Table 8D, Batch 1, IV bag, Initial (T = 0)",996.6 ng/mL and 1007 ng/mL and 953.6 ng/mL and 1015 ng/mL and 1020 ng/mL and 1036 ng/mL
same,% Initial,[17],102% and 100% and 101%
same,Iloprost,[17],1026 ng/mL and 1009 ng/mL and 1025 ng/mL and 1030 ng/mL and 1011 ng/mL and 987.4 ng/mL
same,% Initial,[18],101% and 99% and 100% and 98%
same,Iloprost,[18],1023 ng/mL and 973.1 ng/mL and 1013 ng/mL and 1012 ng/mL and 996.7 ng/mL and 970.8 ng/mL
same,% Initial,[19],101% and 98% and 102% and 100%
same,Iloprost,[19],1022 ng/mL and 963.3 ng/mL and 1001 ng/mL
same,Iloprost,"Table 8E, Batch 2, IV bag, Initial (T = 0)",988.4 ng/mL
same,% Initial,"Table 8F (5° C. for 8 days to 25° C./60% RH), Batch 1, time point 5° C. for 5 days [sic]",103% and 99% and 102% and 100%
same,% Initial,"Table 8F, Batch 1, 5° C. for 8 days, 25° C./60% RH for 8 hr",99% and 98% and 107% and 100%
same,% Initial,"Table 8F, Batch 1, 5° C. for 8 days, 25° C./60% RH for 12 hr",101% and 100% and 99%
same,% Initial,"Table 8G (5° C. for 8 days to 25° C./60% RH), Batch 2, time point 5° C. for 5 days [sic]",99% and 97% and 102%
